From US20240067651A1 (Biohaven Therapeutics Ltd., priority 2019, published 2024)

Assays:
[1] = Caco-2 Permeability Assay; assay type: in vitro ADME, human; conditions: human
Summary of the method: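 Bidirectional transport at 37 °C for 90 min, 10 μM donor concentration, with or without Pgp inhibitor, across 21-day Caco-2 monolayers with TEER >600 […] in HEPES-buffered HBSS, pH 7.4. LC-MS/MS of donor and receiver samples gives Papp, B→A/A→B efflux ratio and mass recovery.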

[2] = Stability in Simulated Gastric Fluid (SGF); assay type: in vitro ADME; design: key: % parent compound remaining relative to 0-minute sample
Summary of the method: (§1)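 LC-MS/MS read-out of intact compound (2 μg/mL final) over 60 minutes at 37° C; gastric medium pH 1.2 with pepsin, intestinal medium pH 6.8 with pancreatin. Half-life from ln(% remaining) against time.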

[3] = Stability in Simulated Intestinal Fluid (SIF); assay type: in vitro ADME; design: key: % parent compound remaining relative to 0-minute sample
Summary of the method: as §1

Plasma Stability = assay type: in vitro ADME, human; conditions: % remaining at 1 h; human plasma, 1 μM, 37° C.
Summary of the method: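 Parent compound quantified by LC-MS/MS after acetonitrile precipitation, reported as percent of control remaining (triplicate). Incubation: 1 hour, 37° C, fresh human plasma, compound at 1 μM.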

[4] = Caco-2, pH 7.4, donor 10 μM, 90 minutes, 37° C., direction not given
[5] = % remaining at 1 h, SGF with pepsin pH 1.2, 2 μg/mL, 37° C.
[6] = % remaining at 1 h, SIF with pancreatin pH 6.8, 2 μg/mL, 37° C.
[7] = bare number, no % and no time given
[8] = Caco-2, pH 7.4, no unit printed at the place (tables the 9th table and the 10th table have no head)

Papp at 90 min, 10 µM [1, 4]	SGF [2, 5]	SIF [3, 6]	human Plasma stability (Plasma Stability)	SGF [2, 7]	SIF [3, 7]	Compound	Papp at 90 min, 10 µM [1, 8]
< 1.07 ×10⁻⁶ cm/s	91%	100%	95% @	–	–	CC(C)OCCn1c(=S)[nH]c(=O)c2c1ccn2COP(=O)(O)O [Example 83, ({4-oxo-1-[2-(propan-2-yloxy)ethyl]-2-sulfanylidene-1H,2H,3H,4H,5H-pyrrolo[3,2-d]pyrimidin-5-yl}methoxy)phosphonic acid]	–
6.54 ×10⁻⁶ cm/s	78%	90%	30%	–	–	CC(C)OCCn1c(=S)[nH]c(=O)c2c1ccn2COC(=O)[C@@H]1CCC(=O)N1C(=O)OC(C)(C)C [Example 85, 1-tert-Butyl 2-{4-oxo-1-[2-(propan-2-yloxy)ethyl]-2-sulfanylidene-1H,2H,3H,4H,5H-pyrrolo[3,2-d]pyrimidin-5-yl}methyl (2S)-5-oxopyrrolidine-1,2-dicarboxylate]	–
0.24 ×10⁻⁶ cm/s	98%	17%	0%	–	–	CC(C)OCCn1c(=S)[nH]c(=O)c2c1ccn2COC(=O)[C@@H]1CCC(=O)N1 [Example 86, {4-Oxo-1-[2-(propan-2-yloxy)ethyl]-2-sulfanylidene-1H,2H,3H,4H,5H-pyrrolo[3,2-d]pyrimidin-5-yl}methyl(2S)-5-oxopyrrolidine-2-carboxylate]	–
7.05 ×10⁻⁶ cm/s	97%	28%	0%	–	–	COCCOCCOCC(=O)OCn1ccc2c1c(=O)[nH]c(=S)n2CCOC(C)C [Example 87]	–
0.751 ×10⁻⁶ cm/s	99%	64%	100%	–	–	COCCOCCN(C)C(=O)OCSc1nc(=O)c2[nH]ccc2n1CCOC(C)C [Example 88, ({4-Oxo-1-[2-(propan-2-yloxy)ethyl]-1H,4H,5H-pyrrolo[3,2-d]pyrimidin-2-yl}sulfanyl)methyl N-[2-(2-methoxyethoxy)ethyl]-N-methylcarbamate]	–
0.488 ×10⁻⁶ cm/s	99%	65%	100%	–	–	COCCOCCN(C)C(=O)OCSc1nc(=O)c2c(ccn2COC(=O)N(C)CCOCCOC)n1CCOC(C)C [Example 89, (2-{[({[2-(2-methoxyethoxy)ethyl](methyl)carbamoyl}oxy)methyl]sulfanyl}-4-oxo-1-[2-(propan-2-yloxy)ethyl]-1H,4H,5H-pyrrolo[3,2-d]pyrimidin-5-yl)methyl N-[2-(2-methoxyethoxy)ethyl]-N-methylcarbamate]	–
18 ×10⁻⁶ cm/s	77% remaining	56% remaining	0% remaining	–	–	CC(C)OCCn1c(=S)[nH]c(=O)c2c1ccn2COC(=O)OC(C)C [Example 90, {4-oxo-1-[2-(propan-2-yloxy)ethyl]-2-sulfanylidene-1H,2H,3H,4H,5H-pyrrolo[3,2-d]pyrimidin-5-yl}methyl propan-2-yl carbonate]	–
14.2 ×10⁻⁶ cm/s	98% remaining	99% remaining	1% remaining	–	–	CC(C)OCCn1c(SCOC(=O)OC(C)C)nc(=O)c2c1ccn2COC(=O)OC(C)C [Example 91, {4-oxo-2-[{{[(propan-2-yloxy)carbonyl]oxy}methyl)sulfanyl]-1-[2-(propan-2-yloxy)ethyl]-1H,4H,5H-pyrrolo[3,2-d]pyrimidin-5-yl}methyl propan-2-yl carbonate]	–
16.8 ×10⁻⁶ cm/s	–	–	0% remaining	99	38	COCCOCCC(=O)OCn1ccc2c1c(=O)[nH]c(=S)n2CCOC(C)C [Example 93, {4-oxo-1-[2-(propan-2-yloxy)ethyl]-2-sulfanylidene-1H,2H,3H,4H,5H-pyrrolo[3,2-d]pyrimidin-5-yl}methyl 3-(2-methoxyethoxy)propanoate]	–
15.1 ×10⁻⁶ cm/s	–	–	99% remaining	99	95	CC(C)OCCn1c(SCOC(=O)N(C)CC(F)(F)F)nc(=O)c2[nH]ccc21 [Example 94, ({4-oxo-1-[2-(propan-2-yloxy)ethyl]-1H,4H,5H-pyrrolo[3,2-d]pyrimidin-2-yl}sulfanyl)methyl N-methyl-N-(2,2,2-trifluoroethyl)carbamate]	–
18.8 ×10⁻⁶ cm/s	–	–	99% remaining	100	95	CC(C)OCCn1c(SCOC(=O)N(C)CC(F)(F)F)nc(=O)c2c1ccn2COC(=O)N(C)CC(F)(F)F [Example 95, {2-[{{[methyl(2,2,2-trifluoroethyl)carbamoyl]oxy}methyl)sulfanyl]-4-oxo-1-[2-(propan-2-yloxy)ethyl]-1H, 4H,5H-pyrrolo[3,2-d]pyrimidin-5-yl}methyl N-methyl-N-(2,2,2-trifluoroethyl)carbamate]	–
20.3 ×10⁻⁶ cm/s	–	–	98% remaining	98	97	CC(C)OCCn1c(SCOC(=O)N(CC(F)(F)F)CC(F)(F)F)nc(=O)c2[nH]ccc21 [Example 96, ({4-oxo-1-[2-(propan-2-yloxy)ethyl]-1H,4H,5H-pyrrolo[3,2-d]pyrimidin-2-yl}sulfanyl)methyl N,N-bis(2,2,2-trifluoroethyl)carbamate]	–
30.8 ×10⁻⁶ cm/s	–	–	99% remaining	98	96	CC(C)OCCn1c(SCOC(=O)N(CC(F)(F)F)CC(F)(F)F)nc(=O)c2c1ccn2COC(=O)N(CC(F)(F)F)CC(F)(F)F [Example 97, {2-[{{[bis(2,2,2-trifluoroethyl)carbamoyl]oxy}methyl)sulfanyl]-4-oxo-1-[2-(propan-2-yloxy)ethyl]-1H,4H,5H-pyrrolo[3,2-d]pyrimidin-5-yl}methyl N,N-bis(2,2,2-trifluoroethyl)carbamate]	–
6.53 ×10⁻⁶ cm/s	–	–	99% remaining	95	80	CC(C)OCCn1c(=S)n(COC(=O)N(CC(F)(F)F)CC(F)(F)F)c(=O)c2c1ccn2COC(=O)N(CC(F)(F)F)CC(F)(F)F [Example 98, [3-({[bis(2,2,2-trifluoroethyl)carbamoyl]oxy}methyl)-4-oxo-1-[2-(propan-2-yloxy)ethyl]-2-sulfanylidene-1H, 2H,3H,4H,5H-pyrrolo[3,2-d]pyrimidin-5-yl]methyl N,N-bis(2,2,2-trifluoroethyl)carbamate]	–
0.111 ×10⁻⁶ cm/s	0%	0%	5%	–	–	CC(C)OCCn1c(=S)[nH]c(=O)c2c1ccn2C(C)OC(=O)OC1CCN(C(=O)OC(C)(C)C)CC1 (centres unmarked) [Example 99, tert-Butyl 4-{[(1-{4-oxo-1-[2-(propan-2-yloxy)ethyl]-2-sulfanylidene-1H,2H,3H,4H,5H-pyrrolo[3,2-d]pyrimidin-5-yl}ethoxy)carbonyl]oxy}piperidine-1-carboxylate]	–
–	99%	97%	97%	–	–	CC(C)OCCn1c(=S)[nH]c(=O)c2c1ccn2COC(=O)NCC(F)(F)F [Example 100, {4-oxo-1-[2-(propan-2-yloxy)ethyl]-2-sulfanylidene-1H,2H,3H,4H,5H-pyrrolo[3,2-d]pyrimidin-5-yl}methyl N-(2,2,2-trifluoroethyl)carbamate]	27.7 ×10⁻⁶ cm/s

Compound	Papp at 90 min, 10 µM [1, 4]	SGF [2, 5]	SIF [3, 6]	human Plasma stability (Plasma Stability)	SGF [2, 7]	SIF [3, 7]	Papp at 90 min, 10 µM [1, 8]
CC(C)OCCn1c(=S)n(COCC[Si](C)(C)C)c(=O)c2c1ccn2COCC[Si](C)(C)C [Example 71, 1-[2-(propan-2-yloxy)ethyl]-2-sulfanylidene-3,5-bis({[2-(trimethylsilyl)ethoxy]methyl})-1H,2H,3H,4H,5H-pyrrolo[3,2-d]pyrimidin-4-one]	0.178 ×10⁻⁶ cm/s	98%	88%	58%	–	–	–
CC(C)OCCn1c(=S)[nH]c(=O)c2c1ccn2COCC[Si](C)(C)C [Example 72, 1-[2-(propan-2-yloxy)ethyl]-2-sulfanylidene-5-{[2-(trimethylsilyl)ethoxy]methyl}-1H,2H,3H,4H,5H-pyrrolo[3,2-d]pyrimidin-4-one]	26.4 ×10⁻⁶ cm/s	97%	98%	78%	–	–	–
CC(C)OCCn1c(SCOCC[Si](C)(C)C)nc(=O)c2c1ccn2COCC[Si](C)(C)C [Example 73, 1-[2-(propan-2-yloxy)ethyl]-5-{[2-(trimethylsilyl)ethoxy]-methyl}-2-({[2-(trimethylsilyl)ethoxy]methyl}sulfanyl)-1H,4H,5H-pyrrolo[3,2-d]pyrimidin-4-one]	< 0.717 ×10⁻⁶ cm/s	35%	55%	99%	–	–	–
COC(=O)[C@H](CCCCNC(=O)OC(C)(C)C)NC(=O)OCn1ccc2c1c(=O)[nH]c(=S)n2CCOC(C)C [Example 101, methyl (2S)-6-{[(tert-butoxy)carbonyl]amino}-2-{[{{4-oxo-1-[2-(propan-2-yloxy)ethyl]-2-sulfanylidene-1H,2H,3H,4H,5H-pyrrolo[3,2-d]pyrimidin-5-yl}methoxy)carbonyl]amino}hexanoate]	–	75%	96%	97%	–	–	1.46 ×10⁻⁶ cm/s
